Assay results published in PMC11283233, “A comparative analysis of NADPH supply strategies in Saccharomyces cerevisiae: Production of D-xylitol from D-xylose as a case study” (Metabolic Engineering Communications, 2024).

What was measured:
[1] = target: T1, Zwf1 (glucose-6-phosphate dehydrogenase) (Saccharomyces cerevisiae, UniProt P11412, DEL59-59); test: NADP+ reduction at […] nm, crude extract of overexpressing strain PRY48 (ZWF1*); format: biochemical; details: 2.5 mM glucose-6-phosphate, 0.67 mM NADP+, 50 mM imidazole pH 7.0, 100 mM KCl, 10 mM MgCl2, 0.1 mM EDTA
T1 construct: full-length, untagged; overexpressed from truncated HXT7 promoter at the genomic ZWF1 locus; crude yeast extract
T1 sequence (P11412 with tags, fused parts or gaps DEL59-59): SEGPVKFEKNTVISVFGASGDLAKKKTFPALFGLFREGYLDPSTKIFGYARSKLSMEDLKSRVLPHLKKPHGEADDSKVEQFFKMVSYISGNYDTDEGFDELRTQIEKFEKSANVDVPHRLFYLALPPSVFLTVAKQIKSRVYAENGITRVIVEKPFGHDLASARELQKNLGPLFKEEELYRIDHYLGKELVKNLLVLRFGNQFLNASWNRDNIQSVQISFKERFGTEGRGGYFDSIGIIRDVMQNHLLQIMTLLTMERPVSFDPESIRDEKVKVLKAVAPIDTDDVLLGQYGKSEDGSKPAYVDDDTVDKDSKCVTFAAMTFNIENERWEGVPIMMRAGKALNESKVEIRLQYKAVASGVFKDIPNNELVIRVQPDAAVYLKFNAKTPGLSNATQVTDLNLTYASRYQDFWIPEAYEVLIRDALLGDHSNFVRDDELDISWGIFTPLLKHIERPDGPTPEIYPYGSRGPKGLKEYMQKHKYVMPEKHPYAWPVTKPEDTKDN

[2] = target: T2, Zwf1 (glucose-6-phosphate dehydrogenase) (Saccharomyces cerevisiae, UniProt P11412); test: NADP+ reduction at […] nm, crude extract of overexpressing strain PRY63; format: biochemical; details: 2.5 mM glucose-6-phosphate, 0.67 mM NADP+, 50 mM imidazole pH 7.0, 100 mM KCl, 10 mM MgCl2, 0.1 mM EDTA
T2 construct: full-length, untagged; overexpressed from truncated HXT7 promoter at the genomic ZWF1 locus; crude yeast extract
T2 sequence (P11412 2-505): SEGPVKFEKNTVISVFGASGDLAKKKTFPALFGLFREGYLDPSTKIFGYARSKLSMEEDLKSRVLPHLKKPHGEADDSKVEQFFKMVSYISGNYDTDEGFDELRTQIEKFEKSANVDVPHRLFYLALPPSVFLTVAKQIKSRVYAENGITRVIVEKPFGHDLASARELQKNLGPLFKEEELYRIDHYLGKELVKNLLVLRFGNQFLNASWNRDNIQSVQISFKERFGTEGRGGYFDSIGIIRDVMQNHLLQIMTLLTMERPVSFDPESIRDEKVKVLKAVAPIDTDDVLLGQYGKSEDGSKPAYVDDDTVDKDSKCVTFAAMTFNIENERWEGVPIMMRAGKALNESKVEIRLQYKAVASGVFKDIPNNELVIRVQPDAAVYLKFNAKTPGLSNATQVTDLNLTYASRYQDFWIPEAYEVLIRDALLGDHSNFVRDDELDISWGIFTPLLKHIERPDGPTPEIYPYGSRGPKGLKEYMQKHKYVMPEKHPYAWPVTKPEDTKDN

Xyl1 (coXYL1) = target: T3, Xyl1 (coXYL1) (Scheffersomyces stipitis, UniProt P31867); test: xylitol formation in cells, HPLC, versus empty vector; format: cell-based; details: whole-cell fermentation, SC medium, 30 g/L glucose, 20 g/L xylose, 30 °C; NADPH-dependent
T3 construct: full-length, codon-optimized gene on p425H7, expressed in S. cerevisiae PRY39 (gre3 deleted); intact cells
T3 sequence (P31867 1-318): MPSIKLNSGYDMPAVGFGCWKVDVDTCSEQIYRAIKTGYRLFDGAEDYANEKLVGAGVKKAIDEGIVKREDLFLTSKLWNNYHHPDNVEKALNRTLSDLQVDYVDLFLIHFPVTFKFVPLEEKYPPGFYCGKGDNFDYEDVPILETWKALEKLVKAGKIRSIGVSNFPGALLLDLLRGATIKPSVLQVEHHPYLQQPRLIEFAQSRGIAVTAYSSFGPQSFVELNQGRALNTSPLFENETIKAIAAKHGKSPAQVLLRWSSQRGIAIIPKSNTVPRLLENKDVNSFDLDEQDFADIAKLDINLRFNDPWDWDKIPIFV

Gre3 (coGRE3, ScGRE3) = target: T4, Gre3 (coGRE3, ScGRE3) (Saccharomyces cerevisiae, UniProt P38715); test: as above; format: cell-based; details: whole-cell fermentation, SC medium, 30 g/L glucose, 20 g/L xylose, 30 °C; NADPH-dependent
T4 construct: full-length, codon-optimized or native gene on p425H7, expressed in S. cerevisiae PRY39 (gre3 deleted); intact cells
T4 sequence (P38715 2-327): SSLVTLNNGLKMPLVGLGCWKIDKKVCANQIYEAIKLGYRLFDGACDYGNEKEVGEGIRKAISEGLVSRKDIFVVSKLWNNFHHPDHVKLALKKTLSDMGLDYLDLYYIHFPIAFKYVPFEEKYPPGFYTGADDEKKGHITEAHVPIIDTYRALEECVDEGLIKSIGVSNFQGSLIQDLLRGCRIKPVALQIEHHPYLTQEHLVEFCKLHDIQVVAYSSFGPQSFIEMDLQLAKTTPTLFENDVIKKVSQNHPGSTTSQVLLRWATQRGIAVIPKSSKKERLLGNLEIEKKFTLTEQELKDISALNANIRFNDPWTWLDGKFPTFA

Structure (SMILES)	NADP+ reduction at 340 nm, crude extract of overexpressing strain PRY48 (ZWF1*) [1]	NADP+ reduction at 340 nm, crude extract of overexpressing strain PRY63 [2]	xylitol formation in cells, HPLC, versus empty vector (Xyl1 (coXYL1))	xylitol formation in cells, HPLC, versus empty vector (Gre3 (coGRE3, ScGRE3))
NC(=O)c1ccc[n+]([C@@H]2O[C@H](COP(=O)(O)OP(=O)(O)OC[C@H]3O[C@@H](n4cnc5c(N)ncnc54)[C@H](OP(=O)(O)O)[C@@H]3O)[C@@H](O)[C@H]2O)c1 [NADP^+]	the deletion of Glu59 apparently led to a higher Zwf1 activity	The reduction of NADP^+ was recorded by continuously measuring the change of the absorbance	–	–
O=P(O)(O)OC[C@H]1OC(O)[C@H](O)[C@@H](O)[C@@H]1O (some centres unmarked) [glucose-6-phosphate]	–	A G6PDH assay was performed in crude extracts from the engineered strains	–	–
OC1OC[C@@H](O)[C@H](O)[C@H]1O (some centres unmarked) [xylose]	–	–	The expression of all XR constructs led to considerably high xylitol titers	The expression of all XR constructs led to considerably high xylitol titers
